Data on seven substances can be found in US10889812B2, “Short non-coding protein regulatory RNAs (sprRNAs) and methods of use” (University of Maryland, Baltimore, priority 2014, dated 2021).

Entries after “also recorded” stand apart in the source; their conditions may differ. m = 2'-O-methyl; r = 2'-OH (RNA)

One series deals with p-ERM. In words: IP with anti-p-ERM antibody followed by RT-PCR in transfected H1792 cells. It counts as binding, human. Particulars: H1792 cells transfected with the oligonucleotide. From the text: We next wanted to determine the site critical for piR-L-163's binding toP-ERM. We first analyzed the piR-L-163 sequence and identified a candidate motif “UUNNUUUNNUU” (SEQ ID NO:495) with potentially critical for the binding (FIG. 5a). We then generated 5 mutant forms of piR-L-163 named as M1-M5 (FIG. 5b and Table 3) to test their potential impact on the p-ERM binding. For this experiment, we used H1792 cells because these cells expressed extremely low level of endogenous piR-L-163 but considerable amount of p-ERM (FIG. 5c and FIG. 11a). H1792 cells were transfected with Scr (control), Ant-163, piR-L-163 (WT), or Mutant 1 (M1) to Mutant 5 (M5) RNA oligonucletides, respectively. An anti-p-ERM antibody was used for IP followed by RT-PCR using primers specific for Scr, Ant-163, piR-L-163, or M1-M5 (Table 6) to detect the corresponding oligonucleotides.
To amplify sncRNAs, we added an adaptor to the 3′ end, a process including adaptor ligation, RT and PCR (de Vanssay, A. et al. Paramutation in Drosophila linked to emergence of a piRNA-producing locus. Nature 490, 112-115 (2012); Li, Z. et al. Characterization of viral and human RNAs smaller than canonical MicroRNAs. J Virol. 83, 12751-12758 (2009)). For adaptor ligation, the adaptor /5′rapp/CTGTAGGCACCATCAAT/3′ddc/ (SEQ ID NO:499) with both 5′ and 3′ modification was used. Briefly, mixed 1 μl (10 pmol, ˜55 ng) of RNA 3′ adaptor and 4.4 μl (˜100 ng) of purified sncRNAs in a 1.5 ml EP tube; Incubated at 72° C. for 2 min, then placed on ice immediately and kept it on ice for at least 1 min; Added the following reagents (New England Biolabs) to the above tube: 0.8 μl 10×RNA ligase buffer, 1 μl RNase inhibitor, and 1 μl single strand RNA ligase; Mixed it well and incubated at 37° C. for 1 hr, then terminated the reaction at 65° C. for 15 min. For RT, SuperScript™ III First-Strand Synthesis System (Invitrogen) was used according to the manufacturer's instructions with gene specific primer (5′-[…]-3′) (SEQ ID NO:500). For PCR, a common reverse primer (5′-[…]-3′) (SEQ ID NO:501) and primers specific for individual sncRNAs (Table 6). Amplification conditions were denaturation at 95° C. for 30 s (5 min for the first cycle), annealing at 60° C. for 20 s and extension at 72° C. for 20 s (2 min for the last cycle) for 25 cycles.
For IP using anti-human Moesin or p-ERM antibodies, anti-Moesin (Clone Q480, Catalog No. 3150, Cell Signaling) or anti-p-ERM (Clone 41A3, Catalog No. 3149, Cell Signaling) antibodies were used and a rabbit IgG was used as a control. Briefly, Saturated protein G agarose beads (Sigma-Aldrich) with rabbit IgG, anti-Moesin or anti-p-ERM antibodies, respectively (1 μg antibody was used for 4 μl agarose beads) at 4° C. for 3 hrs, centrifuged at 2,200×g for 5 min, and discarded the upper aqueous phase; (2) Protein extracts prepared from cells using lysis buffer (20 mM Tris-cl, pH7.6, 150 mM NaCl, 20 mM KCl, 1.5 mM MgCl2, 0.5% NP-40, 0.5 mM PMSF) were pre-cleared using protein G agarose at 4° C. for 2 hrs, centrifuged at 2,200×g for 5 min, and transferred the upper aqueous phase to above tubes with agarose beads saturated with antibodies, respectively; Kept the tubes rotating overnight at 4° C., centrifuged at 2,200×g for 5 min, and washed the beads with lysis buffer twice; Extracted total RNAs from beads using Trizol Reagent (Life Technologies); Amplification of piR-L-163 or its mutants was performed according to the steps described in the “RT-PCR” section.

Another series concerns H1792 cells. Kind of series: Trans-well invasion assay. Format: cell-based, human. Particulars: H1792, vs control RNA oligonucleotides. From the text:
We then tested the potential impact of piR-L-163 in cell migration and invasion, two of the properties involving ERM's biological functions (Fehon, R. G., Mclatchey, A. I. & Bretscher, A. Organizing the cell cortex: the role of ERM proteins. Nat Rev Mol Cell Biol. 11, 276-287 (2010); Hunter, K. W. Ezrin, a key component in tumor metastasis. Trends Mol. Med. 10, 201-204 (2004); Luo, Y. et al. Recognition of CD146 as an ERM-binding protein offers novel mechanisms for melanoma cell migration. Oncogene 31, 306-321 (2013); Clucas, J. & Valderrama, F. ERM proteins in cancer progression. J Cell Sci. 128, 1253 (2015)).
Briefly, 24 hrs after transfection, 6×10^4 cells were placed in the upper chamber of Matrigel Invasion Chambers (BD Bioscience) with growth factor-free Keratinocyte-SFM and the bottom chamber were exposed to Keratinocyte-SFM medium supplemented with L-Glutamine, prequalified human recombinant EGF 1-53 and BPE. Invading cells were evaluated after 12 hrs according to the manufacturer's instruction. The numbers of invading cells were adjusted 15% downwards for Ant-163 treated cells or 15% upwards for piR-L-163 treated cells to compensate the differences for the proliferation rates.

The next series has as its system MDM2. Kind of series: Western blot of MDM2 cleavage and phosphorylation in SCC cells. It counts as cell-based, human. The note with it: SCC cells transfected, vs Scr RNA. From the text:
Primary antibodies used were: anti-Moesin (1:1,000, Clone Q480, Catalog No. 3150, Cell Signaling), anti-p-ERM (Clone 41A3, Catalog No. 3149, Cell Signaling), anti-Moesin (Clone 38/Moesin, Catalog No. 610401, BD Transduction Laboratories), anti-p-Moesin (Thr558, Catalog No. 12895, Sanra Cruz), anti-β-actin (1:5,000, Catalog No. A228, Sigma-Aldrich), anti-EBP50 (1:100, Clone 6/EBP50, Catalog No. 61160, BD Transduction Laboratories), anti-F-actin (1:100, Clone NH3, Catalog No. MA1-80729, Thermor Fisher), anti-p-Wee 1 (Se53, 1:1000, Catalog No. sc-130223, Sanra Cruz), anti-Wee 1 (C-20, 1:1000, Catalog No. sc-325, Sanra Cruz), anti-p-Cdc2 (Tyr15, 1:1000, Catalog No. 9111, Cell Signaling), anti-p-Cdk (Thr14/Tyr15-R, 1:1000, Catalog No. sc-28435-R, Sanra Cruz), anti-Cdc2 p34 (H-297, 1:1000, Catalog No. sc-747, Sanra Cruz), anti-p-Cdc25C (Ser198, 1:1000, Catalog No. 9529, Cell Signaling), anti-CDK2 (78B2, 1:1000, Catalog No. 2546, Cell Signaling), anti-p-Histone H2AX (Ser139, 20E3, :1000, Catalog No. 9718, Cell Signaling), and anti-GFP (N-terminal, 1:4000, Catalog No. G1544, Sigma). Secondary antibodies used were: Goat anti-Mouse (1:2,500, Catalog No. 31160, Pierce), and Goat anti-Rabbit (1:2,500, Catalog No. 31460, Pierce). Cells were lysed in RIPA buffer (Sigma) on ice after washed in PBS twice, centrifuge at […] for 10 min at 4° C. Protein in supernatant was qualified using BCA™ protein assay kit (Thermo Scitific) and denatured in SDS loading buffer in boiling water, run 10% SDS-PAGE gel and transferred to nitrocellulose membrane (Thermo Scitific). […]
Next, we wanted to explore potential mechanism of piR-L-138-mediated apoptosis inhibition in CDDP treated lung SCC cells. We first analyzed cleaved PARP, a protein marker indicative of apoptosis, and found it was increased in the SCC cells pre-treated with Ant-138 compared with Scr pre-treated cells (FIG. 15d). As both of the SCC cell lines harbor p53 mutations, we analyzed mouse double minute 2 homolog (MDM2) which has been implicated in apoptosis including p53-independent pathway (Bohlman S, Manfredi J J. p53-independent effects of Mdm2. Subcell Biochem. 85,235-46 (2014); Bouska A, Eischen C M. Mdm2 affects genome stability independent of p53. Cancer Res. 69, 1697-701 (2009); Zhang, Z., Li, M., Wang, H., Agrawal, S., and Zhang, R. Antisense therapy targeting MDM2 oncogene in prostate cancer: Effects on proliferation, apoptosis, multiple gene expression, and chemotherapy. Proc. Natl. Acad. Sci. 100, 11636-11641 (2003); Zhang Z, Wang H, Li M, Agrawal S, Chen X, Zhang R. MDM2 Is a Negative Regulator of p21WAF1/CIP1, Independent of p53. […]

As for “Scr: scrambled DNA or RNA oligonucleotides used as control (SEQ ID NO:506 DNA, SEQ ID NO:524 RNA) (DNA GATACCAGGGACATACGCTTGATCCTAGC; chain GAUACCAAGGACAUACGCUUAUGCAUGCUA; DNA: DNA, backbone and methylation of C not given here; chain: chemistry not given here) [reference compound]”, in the series with p-ERM, the “oligonucleotide detected by RT-PCR in anti-p-ERM IP products (binding to p-ERM)” value (“oligonucleotide detected … (binding to p-ERM)” for short) is “no RT-PCR band could be detected”.

As to “M4: mutant form of piR-L-163, RNA oligonucleotide, SEQ ID NO:522 (AUAUCAUGAUGUUACUCUGAUUCUCUGACC; sugars from the 5' end r29 m1, backbone not given here; further chemistry not fully specified)”, the “oligonucleotide detected … (binding to p-ERM)” value in the series with p-ERM is “RT-PCR bands with expected sizes were detected”.

“M1: mutant form of piR-L-163, RNA oligonucleotide, SEQ ID NO:519 (AUAUCAUGAUGACACGACGACACUCUGACC; (30)..(30) 2′-O-methylation)”: the invasion capability result with H1792 cells is reported as “no impact”. Also, the “oligonucleotide detected … (binding to p-ERM)” value with p-ERM is reported as “no RT-PCR band could be detected”.

For the substance “M5: mutant form of piR-L-163, RNA oligonucleotide, SEQ ID NO:523 (AUUUCAUGAUGUUACUUUGAUUCUCUGACC; sugars from the 5' end r29 m1, backbone not given here; further chemistry not fully specified)”, the “oligonucleotide detected … (binding to p-ERM)” value with p-ERM was “RT-PCR bands with expected sizes were detected”.

In the case of “M2: mutant form of piR-L-163, RNA oligonucleotide, SEQ ID NO:520 (AUAUCAUGAUGUUACGACGAUUCUCUGACC; sugars from the 5' end r29 m1, backbone not given here; further chemistry not fully specified)”, the “oligonucleotide detected … (binding to p-ERM)” value in the series on p-ERM is “no RT-PCR band could be detected”.

For the substance “piR-L-138: sprRNA, SEQ ID NO:268; piRNA-L down-regulated in NSCLC cells, up-regulated upon cisplatin (ACUUUAGCUCUAGAAUUACUCUGAGACCU; expressed or natural sequence; listed as Homo sapiens)”, in the series on MDM2, the MDM2 cleavage result is reported as “enhanced MDM2 cleavage” and the “Serine-166 phosphorylation in cleaved MDM2” value was “reduced Serine-166 phosphorylation in cleaved MDM2”.

With “M3: mutant form of piR-L-163, RNA oligonucleotide, SEQ ID NO:521 (AUAUCAUGAUGUUACGCUGAUUCUCUGACC; sugars from the 5' end r29 m1, backbone not given here; further chemistry not fully specified)”, the “oligonucleotide detected … (binding to p-ERM)” value with p-ERM was “RT-PCR bands with expected sizes were detected; also recorded: substantially weaker”.
